Laboratory results reported in the NIST ThermoML archive (doi:10.1016/j.jct.2012.10.008).
± gives the expanded uncertainty stated by the source.

Assay: xn = mol fraction of the nth substance listed
Conditions: 101 kPa, Liquid; for viscosity: Falling or rolling sphere viscometry; for mass density: Vibrating tube method

CCCC[NH3+].O=[N+]([O-])[O-] [n-butylammonium nitrate] + CCCCO
Conditions | mass density, 293.15 K [kg/m3] | mass density, 298.15 K [kg/m3] | mass density, 303.15 K [kg/m3] | mass density, 308.15 K [kg/m3] | mass density, 313.15 K [kg/m3] | viscosity, 293.15 K [mPa·s] | viscosity, 298.15 K [mPa·s] | viscosity, 303.15 K [mPa·s] | viscosity, 308.15 K [mPa·s] | viscosity, 313.15 K [mPa·s]
x1 = 0.1004 | 851.35 ± 0.18 | 847.7 ± 0.18 | 844.02 ± 0.18 | 840.32 ± 0.18 | 836.6 ± 0.18 | 5.242 ± 0.045 | 4.554 ± 0.039 | 3.985 ± 0.034 | 3.506 ± 0.03 | 3.099 ± 0.026
x1 = 0.1999 | 888.16 ± 0.29 | 884.59 ± 0.29 | 881 ± 0.29 | 877.4 ± 0.29 | 873.79 ± 0.29 | – | 6.852 ± 0.067 | 5.961 ± 0.058 | 5.217 ± 0.051 | 4.592 ± 0.045
x1 = 0.2993 | 922.05 ± 0.53 | 918.6 ± 0.52 | 915.12 ± 0.52 | 911.54 ± 0.52 | 908.03 ± 0.52 | 11.36 ± 0.13 | 9.747 ± 0.11 | 8.447 ± 0.096 | 7.302 ± 0.083 | 6.344 ± 0.072
x1 = 0.3992 | 953.58 ± 0.88 | 950.14 ± 0.88 | 946.7 ± 0.87 | 943.25 ± 0.87 | 939.81 ± 0.86 | 17.51 ± 0.23 | 14.95 ± 0.2 | 12.76 ± 0.17 | 11.03 ± 0.15 | 9.601 ± 0.13
x1 = 0.4955 | 982.07 ± 1.4 | 978.69 ± 1.4 | 975.31 ± 1.3 | 971.93 ± 1.3 | 968.56 ± 1.3 | 24.22 ± 0.37 | 20.34 ± 0.31 | 17.34 ± 0.26 | 14.86 ± 0.23 | 12.88 ± 0.2
x1 = 0.6508 | 1024.4 ± 2.4 | 1021.11 ± 2.4 | 1017.81 ± 2.4 | 1014.53 ± 2.4 | 1011.26 ± 2.4 | 38.67 ± 0.71 | 31.95 ± 0.59 | 26.79 ± 0.49 | 22.66 ± 0.42 | 19.51 ± 0.36
x1 = 0.801 | 1061.11 ± 3.9 | 1057.88 ± 3.9 | 1054.67 ± 3.9 | 1051.47 ± 3.9 | 1048.29 ± 3.8 | 60.58 ± 1.3 | 49.4 ± 1.1 | 40.82 ± 0.89 | 34.2 ± 0.74 | 28.96 ± 0.63
x1 = 0.8998 | 1083.71 ± 5.2 | 1080.52 ± 5.1 | 1077.34 ± 5.1 | 1074.19 ± 5.1 | 1071.05 ± 5 | 83.12 ± 2.4 | 68.14 ± 1.7 | 56.15 ± 1.3 | 46.69 ± 1.1 | 39.11 ± 0.93
x1 = 1 | 1104.68 ± 6.6 | 1101.52 ± 6.6 | 1098.38 ± 6.5 | 1095.26 ± 6.5 | 1092.17 ± 6.5 | 111.35 ± 4.1 | 89.95 ± 2.9 | 73.04 ± 2.1 | 60.25 ± 1.6 | 50.12 ± 1.3

CCCC[NH3+].O=[N+]([O-])[O-] [n-butylammonium nitrate] + CCCO
Conditions | mass density, 293.15 K [kg/m3] | mass density, 298.15 K [kg/m3] | mass density, 303.15 K [kg/m3] | mass density, 308.15 K [kg/m3] | mass density, 313.15 K [kg/m3] | viscosity, 293.15 K [mPa·s] | viscosity, 298.15 K [mPa·s] | viscosity, 303.15 K [mPa·s] | viscosity, 308.15 K [mPa·s] | viscosity, 313.15 K [mPa·s]
x1 = 0.0999 | 855.12 ± 0.18 | 851.36 ± 0.18 | 847.56 ± 0.18 | 843.75 ± 0.18 | 839.91 ± 0.18 | 4.091 ± 0.035 | 3.599 ± 0.031 | 3.182 ± 0.027 | 2.824 ± 0.024 | 2.516 ± 0.021
x1 = 0.2004 | 898.27 ± 0.3 | 894.64 ± 0.3 | 890.99 ± 0.3 | 887.32 ± 0.3 | 883.65 ± 0.3 | 6.691 ± 0.065 | 5.828 ± 0.057 | 5.108 ± 0.05 | 4.503 ± 0.044 | 3.989 ± 0.039
x1 = 0.2994 | 935.27 ± 0.54 | 931.74 ± 0.53 | 928.19 ± 0.53 | 924.64 ± 0.53 | 921.09 ± 0.53 | 10.45 ± 0.12 | 8.998 ± 0.1 | 7.81 ± 0.089 | 6.822 ± 0.078 | 6.009 ± 0.068
x1 = 0.4007 | 968.52 ± 0.91 | 965.08 ± 0.9 | 961.63 ± 0.9 | 958.18 ± 0.89 | 954.74 ± 0.89 | 16.54 ± 0.22 | 14.11 ± 0.19 | 12.11 ± 0.16 | 10.49 ± 0.14 | 9.207 ± 0.12
x1 = 0.4995 | 997.32 ± 1.4 | 993.96 ± 1.4 | 990.59 ± 1.4 | 987.23 ± 1.4 | 983.88 ± 1.4 | 22.52 ± 0.34 | 19.08 ± 0.29 | 16.29 ± 0.25 | 14.05 ± 0.21 | 12.19 ± 0.19
x1 = 0.6495 | 1035.44 ± 2.5 | 1032.16 ± 2.5 | 1028.88 ± 2.5 | 1025.62 ± 2.4 | 1022.36 ± 2.4 | 38.05 ± 0.7 | 31.62 ± 0.58 | 26.59 ± 0.49 | 22.59 ± 0.41 | 19.39 ± 0.36
x1 = 0.7978 | 1067.64 ± 4 | 1064.42 ± 3.9 | 1061.21 ± 3.9 | 1058.02 ± 3.9 | 1054.86 ± 3.9 | 61.01 ± 1.3 | 49.83 ± 1.1 | 41.2 ± 0.89 | 34.54 ± 0.75 | 29.21 ± 0.63
x1 = 0.9008 | 1087.69 ± 5.2 | 1084.51 ± 5.2 | 1081.34 ± 5.2 | 1078.19 ± 5.1 | 1075.07 ± 5.1 | 83.36 ± 2.4 | 67.14 ± 1.7 | 55.16 ± 1.3 | 46.11 ± 1.1 | 40.09 ± 0.96
x1 = 1 | 1104.68 ± 6.6 | 1101.52 ± 6.6 | 1098.38 ± 6.5 | 1095.26 ± 6.5 | 1092.17 ± 6.5 | 111.35 ± 4.1 | 89.95 ± 2.9 | 73.04 ± 2.1 | 60.25 ± 1.6 | 50.12 ± 1.3

CCCC[NH3+].O=[N+]([O-])[O-] [n-butylammonium nitrate] + CCO
Conditions | mass density, 293.15 K [kg/m3] | mass density, 298.15 K [kg/m3] | mass density, 303.15 K [kg/m3] | mass density, 308.15 K [kg/m3] | mass density, 313.15 K [kg/m3] | viscosity, 293.15 K [mPa·s] | viscosity, 298.15 K [mPa·s] | viscosity, 303.15 K [mPa·s] | viscosity, 308.15 K [mPa·s] | viscosity, 313.15 K [mPa·s]
x1 = 0.0995 | 858.45 ± 0.18 | 854.53 ± 0.18 | 850.59 ± 0.18 | 846.63 ± 0.18 | 842.66 ± 0.19 | 2.5 ± 0.021 | 2.251 ± 0.019 | 2.036 ± 0.017 | 1.846 ± 0.016 | 1.682 ± 0.014
x1 = 0.1997 | 910.07 ± 0.3 | 906.36 ± 0.3 | 902.64 ± 0.3 | 898.9 ± 0.3 | 895.16 ± 0.3 | 4.379 ± 0.043 | 3.895 ± 0.038 | 3.486 ± 0.034 | 3.134 ± 0.031 | 2.827 ± 0.028
x1 = 0.2999 | 951.56 ± 0.55 | 947.99 ± 0.55 | 944.41 ± 0.54 | 940.85 ± 0.54 | 937.28 ± 0.54 | 7.388 ± 0.084 | 6.633 ± 0.076 | 5.868 ± 0.067 | 5.192 ± 0.059 | 4.591 ± 0.052
x1 = 0.3998 | 985.07 ± 0.93 | 981.61 ± 0.92 | 978.16 ± 0.92 | 974.71 ± 0.91 | 971.27 ± 0.91 | 12.29 ± 0.16 | 10.67 ± 0.14 | 9.285 ± 0.12 | 8.205 ± 0.11 | 7.25 ± 0.096
x1 = 0.5005 | 1012.9 ± 1.5 | 1009.57 ± 1.4 | 1006.2 ± 1.4 | 1003.2 ± 1.4 | 999.76 ± 1.4 | 18.53 ± 0.28 | 15.89 ± 0.24 | 13.78 ± 0.21 | 12.04 ± 0.18 | 10.57 ± 0.16
x1 = 0.6501 | 1047.63 ± 2.6 | 1044.37 ± 2.5 | 1041.1 ± 2.5 | 1037.86 ± 2.5 | 1034.62 ± 2.5 | 32.66 ± 0.6 | 27.42 ± 0.5 | 23.15 ± 0.42 | 19.83 ± 0.36 | 17.12 ± 0.31
x1 = 0.8003 | 1075.57 ± 4 | 1072.36 ± 4 | 1069.17 ± 4 | 1066 ± 4 | 1062.84 ± 3.9 | 56.97 ± 1.2 | 46.57 ± 1 | 38.82 ± 0.84 | 32.55 ± 0.7 | 27.74 ± 0.6
x1 = 0.8989 | 1090.94 ± 5.2 | 1087.76 ± 5.2 | 1084.6 ± 5.2 | 1081.46 ± 5.1 | 1078.34 ± 5.1 | 79.51 ± 2.2 | 65.34 ± 1.6 | 53.93 ± 1.2 | 44.86 ± 1.1 | 37.86 ± 0.9
x1 = 1 | 1104.68 ± 6.6 | 1101.52 ± 6.6 | 1098.38 ± 6.5 | 1095.26 ± 6.5 | 1092.17 ± 6.5 | 111.35 ± 4.1 | 89.95 ± 2.9 | 73.04 ± 2.1 | 60.25 ± 1.6 | 50.12 ± 1.3
